Common to all, as to experiment: NCI anticancer screen, dose series, 48 h
Test [1] concerns MDA-MB-231 breast.
For test [2], the system named is SNB-19 CNS.
In test [3] the test system is LOX IMVI melanoma.
Test [4] relates to MCF7 breast.
For test [5], the system named is COLO 205 colon.
The test system of test [6] is A549 NSCLC.
Test [7] concerns ACHN renal.
The test system of test [8] is OVCAR-5 ovarian.
Test [9] deals with NCI-H460 lung.
The subject of test [10] is KM12 colon.

Molecules are shown by their SMILES.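 Compound exposure: 48 hours, 5 concentrations, 96-well plates. GI50 = concentration required for 50% inhibition of growth. At the TGI there is no net growth.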 Where only a bound is given, the exact number is not on record here.

As to `O=c1nc2oc3ccc4ccccc4c3cc-2s1`, the GI50 is 12.4 µM in [1]; 6.73 µM in [2]; 4.09 µM in test [3]; 0.485 µM in test [4]; 16.3 µM in [5]; above 92.7 µM in [6]. The GI50 is 38.6 µM in [7], above 100 µM in [8], 4.93 µM in test [9] and 0.961 µM in test [10]. The TGI in test [1], in [2], in test [3], in test [4], in test [5] and in test [6] was above 100 µM in each case. Further, the TGI in [7], in test [8], in [9] and in [10] was above 100 µM each time.
As for `Cc1ccc(S(=O)(=O)Nc2cccc3[nH]c(C(F)(F)F)nc23)cc1`, the GI50 in [1] was 1.61 µM; in test [2], 0.972 µM; in test [3], 0.829 µM; in test [4] it was 0.389 µM; in [5], 0.387 µM; in [6] it was 0.653 µM. In addition, the GI50 in test [7] was 0.799 µM; in test [8], 1.85 µM; in [9], 0.398 µM; in [10], 0.347 µM. Also, the TGI was 22.5 µM in test [1]; above 100 µM in test [2]; above 100 µM in test [3]; above 54.5 µM in test [4]; 10.7 µM in test [5]; above 45.8 µM in test [6]. Also, the TGI in [7] was above 60.6 µM; in test [8], above 74.1 µM; in test [9], above 38.4 µM; in test [10], 26.8 µM.
For the compound `CC(C)(O)CC(=O)NCCn1ccc2ncnc(Nc3ccc(Oc4cccc(C(F)(F)F)c4)c(Cl)c3)c21`, the GI50 in test [1] was 4.53 µM; in test [2], 3.91 µM; in [3], 2.34 µM; in test [4], 2.98 µM; in test [5], 3.5 µM; in test [6] it was 3.05 µM. Further, the GI50 in test [7] is 1.15 µM; in test [8], 2.55 µM; in test [9] it was 3.37 µM; in [10], 3.67 µM. Further, the TGI in test [1], in test [2], in test [3], in [4], in [5] and in test [6] was above 10 µM in each case. Moreover, the TGI in test [7], in test [8], in [9] and in test [10] was above 10 µM each time.
On to `CN(C)c1ccc2c(c1)OC(N)=C(C#N)C2c1ccc2c(c1)CCO2` (stereo not given), for which the GI50 is 0.419 µM in [1]; 1.17 µM in test [2]; 0.053 µM in [3]; below 0.0211 µM in [4]; 0.28 µM in test [5]; 0.198 µM in test [6]. Further, the GI50 was 0.0683 µM in [7], 1.13 µM in [8], below 0.0231 µM in test [9] and below 0.0309 µM in test [10]. Further, the TGI was 28.6 µM in [1]; above 100 µM in [2]; 17.9 µM in test [3]; 32.3 µM in test [4]; 3.39 µM in [5]; above 100 µM in [6]. The TGI was above 67.1 µM in [7], above 100 µM in test [8], 18.3 µM in test [9] and above 42 µM in test [10].
As for `COc1cc([C@H]2OC[C@H]3[C@@H]2CO[C@@H]3c2cc(OC)c3c(c2)OCO3)cc(OC)c1OC`, the TGI in [1], in [2], in [3], in [4], in [5] and in [6] was above 100 µM each time. Further, the TGI in [7], in test [8], in [9] and in test [10] was above 100 µM each time.
On to `Nc1[nH]nc2nc(-c3cccs3)cc(C(F)(F)F)c12`, for which the GI50 in test [1] is above 25 µM; in test [2], above 25 µM; in test [3], above 25 µM; in test [4] it was above 15.8 µM; in [5], above 25 µM; in test [6], 24.3 µM. Moreover, the GI50 in [7] is above 21.6 µM; in test [8], above 25 µM; in test [9], above 25 µM; in [10], 12 µM. Besides, the TGI in [1], in test [2], in test [3], in test [4], in test [5] and in [6] was above 25 µM throughout. The TGI in test [7], in test [8], in [9] and in [10] was above 25 µM throughout.
Regarding `COc1ccc(C2SC(C)C(=O)N2NC(=O)C(O)c2ccccc2)cc1OC` (stereo not given), the GI50 in test [1], in [2], in test [3], in test [4], in test [5] and in test [6] was above 100 µM throughout. Moreover, the GI50 in test [7], in test [8], in [9] and in test [10] was above 100 µM in each case. Besides, the TGI in test [1], in test [2], in test [3], in test [4], in [5] and in test [6] was above 100 µM each time. In addition, the TGI in test [7], in test [8], in test [9] and in test [10] was above 100 µM throughout.
In the case of `COc1c2c(nc3ccccc13)-c1cc3c(c(=O)n1C2)COC(=O)C3(O)CC(=O)N1CCOCC1` (stereo not given), the TGI in [1] was above 100 µM; in test [2], 83.6 µM; in test [3] it was 16.5 µM; in test [4] it was above 44.4 µM; in [5], above 86.5 µM; in test [6], above 92.4 µM. The TGI in [7] worked out at 14.7 µM; in [8], 63.1 µM; in test [9] it was 30.9 µM; in test [10] it was 57.5 µM.
As to `C[CH2][Sn]([CH2]C)([O]C(=O)C(OC(C)=O)c1ccccc1)[O]C(=O)C(OC(C)=O)c1ccccc1` (stereo not given), the GI50 in [1] was 26.6 µM; in test [2] it was 52 µM; in [3], 18.2 µM; in [4] it was 14.6 µM; in [5] it was 23.3 µM; in [6], above 100 µM. The GI50 in test [7] is 17.3 µM; in test [8] it was 41.2 µM; in test [9], above 100 µM; in [10] it was above 100 µM. Also, the TGI is 77.8 µM in [1]; above 100 µM in test [2]; 35.4 µM in test [3]; 27.8 µM in test [4]; 72.9 µM in [5]; above 100 µM in test [6]. Moreover, the TGI in [7] was 31.1 µM; in test [8], above 100 µM; in [9], above 100 µM; in [10], above 100 µM.
Turning to `CCCCN(CCCC)c1ccc(C(=N)c2ccc(N(CCCC)CCCC)cc2)cc1`, the GI50 in test [1] was 0.759 µM; in [2] it was 0.468 µM; in [3], 0.313 µM; in test [4], 0.389 µM; in test [5], 0.322 µM; in test [6] it was 0.72 µM. For the same compound, the GI50 is 0.402 µM in test [7], 0.88 µM in test [8], 0.773 µM in test [9] and 0.334 µM in test [10]. Moreover, the TGI in [1] was 2.06 µM; in test [2] it was 1.91 µM; in [3] it was 1.19 µM; in test [4], 1.44 µM; in [5] it was 1.05 µM; in test [6] it was 2.07 µM. For the same compound, the TGI in test [7] stood at 1.48 µM; in test [8], 2.31 µM; in test [9], 2.13 µM; in [10] it was 1.25 µM.
Take `CCOc1ccccc1N=Nc1c(C)[nH]n(-c2nc(-c3ccccc3)cs2)c1=O`: the GI50 in [1] is 44 µM; in test [2], 43.1 µM; in [3], above 100 µM; in test [4] it was 12.4 µM; in [5] it was above 100 µM; in test [6], 49.9 µM. Moreover, the GI50 is 42.3 µM in test [7], above 100 µM in test [8], 37.5 µM in [9] and above 100 µM in test [10]. Moreover, the TGI in [1], in [2], in [3], in test [4], in [5] and in [6] was above 100 µM in each case. The TGI in test [7], in test [8], in test [9] and in test [10] was above 100 µM throughout.
In the case of `CS[C@]12C(=O)C[C@@]3(C)[C@@H](CC[C@]3(O)C(=O)CO)[C@@H]1CCC1=CC(=O)CC[C@@]12C`, the TGI in test [1], in test [2], in [3], in test [4], in test [5] and in [6] was above 100 µM throughout. For the same compound, the TGI in test [7], in test [8], in test [9] and in [10] was above 100 µM in each case.
Turning to `COc1ccc(C(=O)c2cc3c(N)c(C(=O)Nc4cccc5ccccc45)sc3nc2C)cc1`, the GI50 in test [1] is 0.271 µM; in test [2], 0.208 µM; in test [3], 0.287 µM; in [4], 0.191 µM; in [5], 0.209 µM; in test [6], 0.266 µM. In addition, the GI50 in test [7] is 0.364 µM; in [8], 0.285 µM; in test [9], 0.18 µM; in test [10] it was 0.215 µM. The TGI was above 50 µM in [1]; above 50 µM in test [2]; above 50 µM in test [3]; above 50 µM in test [4]; above 13.3 µM in [5]; above 50 µM in test [6]. Also, the TGI in test [7] was above 50 µM; in [8], above 50 µM; in [9], above 22.5 µM; in test [10], above 50 µM.
For the compound `CC1(C)[C@@H](OC(N)=O)[C@H]2O[C@H]2[C@]2(CO)[C@H]3CC[C@]4(C)[C@@H](c5ccc(=O)oc5)[C@@H](Cl)C[C@]4(O)C3=CC[C@@H]12`, the GI50 in test [1] was 0.0283 µM; in [2], 0.0161 µM; in [3] it was 0.00595 µM; in [4], 0.00745 µM; in [5], 0.0109 µM; in test [6], 0.00469 µM. The GI50 in [7] is 0.00515 µM; in test [8], 0.00821 µM; in test [9], 0.00468 µM; in [10] it was 0.0107 µM. Further, the TGI in test [1] came to 0.103 µM; in test [2] it was 0.0509 µM; in test [3] it was 0.0157 µM; in test [4] it was 0.0512 µM; in [5] it was 0.0506 µM; in [6], 0.0088 µM. Besides, the TGI in [7] is 0.0118 µM; in [8], 0.0342 µM; in test [9], 0.00997 µM; in [10], 0.0445 µM.
On to `C=C1C(=O)OC2/C=C(/C)C(OC(C)=O)CC(O)/C(C)=C\C(OC(=O)/C(C)=C\C)C12` (stereo not given), for which the TGI in test [1], in [2], in test [3], in [4], in [5] and in [6] was above 100 µM each time. Moreover, the TGI in test [7], in test [8], in test [9] and in test [10] was above 100 µM each time.
As to `CCCOC(=O)N1CCN(/[N+]([O-])=N/Oc2ccc([N+](=O)[O-])cc2[N+](=O)[O-])CC1`, the GI50 in test [1] is 2.29 µM; in test [2], 5.08 µM; in [3] it was 0.32 µM; in [4], 0.446 µM; in test [5] it was 2.59 µM; in [6], 3.85 µM. In addition, the GI50 in [7] was 1.84 µM; in [8], 3.43 µM; in test [9] it was 2.54 µM; in test [10], 2.01 µM. Further, the TGI in test [1] was found to be 4.83 µM; in test [2], 18.7 µM; in test [3], 1.08 µM; in test [4], 2.23 µM; in test [5], 6.21 µM; in test [6] it was 22.4 µM. In addition, the TGI in [7] amounted to 3.79 µM; in test [8], 12.7 µM; in [9], 8.82 µM; in [10], 5.66 µM.
